Data on two molecules can be found in paper PMC12073189, “Synthesis and Evaluation of a Novel Zuranolone Analog with High GABAA Receptor PAM Activity and Excellent Pharmacokinetic Profiles” (Molecules, 2025).

Read-outs that look alike come from different tables or passages of the source. Bounds are passed on as bounds.

The target in one assay is T1, CYP1A2 (Homo sapiens, UniProt P05177).
T1 construct: tissue XenoTech; host or cells: pooled human liver microsomes
T1 sequence (P05177 1-516): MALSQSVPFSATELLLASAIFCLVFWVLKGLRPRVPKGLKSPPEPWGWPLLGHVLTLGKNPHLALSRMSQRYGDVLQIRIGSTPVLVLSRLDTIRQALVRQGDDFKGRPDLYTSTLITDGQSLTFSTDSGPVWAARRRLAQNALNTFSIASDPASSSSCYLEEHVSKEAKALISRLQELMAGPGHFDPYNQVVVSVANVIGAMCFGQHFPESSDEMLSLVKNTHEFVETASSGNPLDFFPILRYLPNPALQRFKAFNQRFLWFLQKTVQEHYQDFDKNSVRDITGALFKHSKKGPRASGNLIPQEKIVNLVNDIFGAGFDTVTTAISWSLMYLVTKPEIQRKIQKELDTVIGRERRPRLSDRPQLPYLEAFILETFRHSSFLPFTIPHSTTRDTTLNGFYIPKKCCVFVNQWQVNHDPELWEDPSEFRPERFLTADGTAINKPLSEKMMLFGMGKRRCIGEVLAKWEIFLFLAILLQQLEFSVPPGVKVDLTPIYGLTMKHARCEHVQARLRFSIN
As to the kind of experiment: Human liver CYP inhibition assay (cocktail, pooled HLM). It counts as in vitro ADME. The method, then:
(§1) The main materials used in this experiment were sourced as follows: Zuranolone from BEIWANTABIO Co., Ltd. (Shanghai, China); liver microsomes (rat and human) and CYP isoenzymes (CYP1A2, CYP2C8, CYP2D6, CYP3A4) from XenoTech (Tewksbury, MA, USA); LTK cells from the China Center for Type Culture Collection (CCTCC, Wuhan, China); and CHO cells from the National Certified Cell Bank (Shanghai, China).
(§2) The IC50 values of S9 and Zuranolone on CYP isoenzymes (1A2, 2C8, 2D6, 3A4) were determined in pooled HLM using a cocktail approach, as previously reported.

Another assay has as its target T2, CYP2C8 (Homo sapiens, UniProt P10632).
T2 construct: tissue XenoTech; host or cells: pooled human liver microsomes
T2 sequence (P10632 1-490): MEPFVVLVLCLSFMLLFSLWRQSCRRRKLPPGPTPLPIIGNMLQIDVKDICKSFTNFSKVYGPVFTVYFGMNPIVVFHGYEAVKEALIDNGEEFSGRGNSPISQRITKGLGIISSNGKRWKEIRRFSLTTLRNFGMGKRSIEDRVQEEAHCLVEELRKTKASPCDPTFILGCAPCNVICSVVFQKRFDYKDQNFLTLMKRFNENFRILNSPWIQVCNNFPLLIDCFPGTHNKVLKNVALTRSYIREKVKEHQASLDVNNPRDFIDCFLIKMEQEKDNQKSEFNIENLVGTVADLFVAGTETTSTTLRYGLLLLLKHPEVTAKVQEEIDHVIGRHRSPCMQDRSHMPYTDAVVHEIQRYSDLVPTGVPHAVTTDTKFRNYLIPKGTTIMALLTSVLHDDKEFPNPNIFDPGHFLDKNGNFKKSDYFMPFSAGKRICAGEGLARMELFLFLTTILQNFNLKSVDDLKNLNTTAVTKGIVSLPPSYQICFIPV
The description is as above. The class given is in vitro ADME. The method, then: as §1, §2

The next assay has as its target T3, CYP2D6 (Homo sapiens, UniProt P10635).
T3 construct: tissue XenoTech; host or cells: pooled human liver microsomes
Described as above. The class given is in vitro ADME. As for the experimental part: as §1, §2

For another assay, the target named is T4, CYP3A4 (Homo sapiens, UniProt P08684).
T4 construct: tissue XenoTech; host or cells: pooled human liver microsomes
T4 sequence (P08684 whole entry): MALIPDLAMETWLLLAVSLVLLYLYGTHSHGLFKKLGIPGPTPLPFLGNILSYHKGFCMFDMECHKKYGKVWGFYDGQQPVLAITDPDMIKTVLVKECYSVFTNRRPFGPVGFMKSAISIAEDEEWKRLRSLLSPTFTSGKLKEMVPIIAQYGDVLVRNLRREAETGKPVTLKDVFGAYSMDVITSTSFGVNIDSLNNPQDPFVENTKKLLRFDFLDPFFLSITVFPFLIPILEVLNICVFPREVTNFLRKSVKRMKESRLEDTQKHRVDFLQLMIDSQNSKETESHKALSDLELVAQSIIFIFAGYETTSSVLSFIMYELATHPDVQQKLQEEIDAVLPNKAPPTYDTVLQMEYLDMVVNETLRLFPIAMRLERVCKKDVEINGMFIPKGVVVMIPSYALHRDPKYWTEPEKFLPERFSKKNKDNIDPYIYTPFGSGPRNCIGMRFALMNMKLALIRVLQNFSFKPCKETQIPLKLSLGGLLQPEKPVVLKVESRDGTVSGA
The assay is described as above. The class given is in vitro ADME. The method, then:
as §1, §2

Assay [1] concerns PTZ-induced acute seizures. As to the kind of experiment: Pentylenetetrazole (PTZ)-induced seizure test. The class given is in vivo, rat. As to conditions: rats; for latency to tonic seizures: n = 6; for effect on seizure incidence: oral 6, 12, 24 μmol/kg, PTZ 50 mg/kg. The method, then: PTZ can trigger dose-dependent tonic seizures through its antagonistic effects on GABAA receptor function. To evaluate target engagement at GABAA receptors, Zuranolone and S9 were tested in a PTZ-induced acute seizure model in rats, which is widely used to assess GABAergic activity. Based on their pharmacokinetic study results, S9 or Zuranolone was administered orally at the same doses (6, 12, and 24 μmol/kg) 1 h prior to PTZ challenge.
We randomly divided rats into 7 groups (n = 6): three same-dose groups for both Zuranolone and S9 (6, 12, 24 μmol/kg) and a vehicle control group (30% SBECD). PTZ can selectively antagonize the GABAA receptors at a dose below 60 mg/kg, while higher doses lead to non-competitive antagonism of GABAA receptors and activation of NMDA receptors. Thus, a dose of 50 mg/kg was applied in this experiment. After intragastric administration of the test drugs or vehicle for 1 h, the animals were injected intraperitoneally with PTZ saline solution at 50 mg/kg. The rats were then placed in observation chambers to monitor the latency of clonic seizures (seizures lasting ≥3 s with LORR) and tonic seizures (the rigid extension of limbs, forming an angle of more than 90° with the body plane) within 1 h.

T3 sequence (P10635 whole entry): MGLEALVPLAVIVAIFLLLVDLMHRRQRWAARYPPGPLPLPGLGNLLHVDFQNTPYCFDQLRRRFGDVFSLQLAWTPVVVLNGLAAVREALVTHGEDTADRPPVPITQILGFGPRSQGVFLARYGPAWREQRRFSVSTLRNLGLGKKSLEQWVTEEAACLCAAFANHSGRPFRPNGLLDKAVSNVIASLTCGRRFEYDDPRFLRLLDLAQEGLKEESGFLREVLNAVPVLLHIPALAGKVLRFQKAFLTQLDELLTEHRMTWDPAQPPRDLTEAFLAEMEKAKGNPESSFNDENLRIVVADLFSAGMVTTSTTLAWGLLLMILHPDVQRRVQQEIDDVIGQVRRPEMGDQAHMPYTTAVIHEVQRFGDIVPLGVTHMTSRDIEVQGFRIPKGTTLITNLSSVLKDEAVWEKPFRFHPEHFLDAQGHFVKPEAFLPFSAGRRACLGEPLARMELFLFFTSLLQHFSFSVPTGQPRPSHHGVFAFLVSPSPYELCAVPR

Turning to `C[C@@]1(O)CC[C@H]2[C@H](CC[C@@H]3[C@@H]2CC[C@]2(C)[C@@H](C(=O)Cn4cc(C#N)cn4)CC[C@@H]32)C1` [Zuranolone], the IC50 at CYP1A2, at CYP2C8, on CYP2D6 and at CYP3A4 was > 30 µM throughout. Moreover, the “latency to tonic seizures” value worked out at 1748.0 ± 555.0 s in assay [1] (oral 12 μmol/kg 1 h before PTZ 50 mg/kg i.p.) and 2995.0 ± 430.6 s in assay [1] (oral 24 μmol/kg 1 h before PTZ 50 mg/kg i.p.). In addition, the “effect on seizure incidence” value in assay [1] is on record as “neither compound significantly affected seizure incidence”.
On to `C[C@@]1(O)CC[C@H]2[C@H](CC[C@@H]3[C@@H]2CC[C@]2(C)[C@@H](C(=O)Cn4cnn(-c5ccnc(OCC(F)(F)F)c5)c4=O)CC[C@@H]32)C1` [S9], for which the concentration for half-maximal inhibition (IC50) (in general, the point on the concentration scale where inhibition reaches its midpoint) was > 30 µM at CYP1A2 (human liver CYP isoenzymes, pooled HLM, read-out: CYP IC50: 1A2); > 30 µM at CYP2C8 (human liver CYP isoenzymes, pooled HLM, read-out: CYP IC50: 2C8); > 30 µM on CYP2D6 (human liver CYP isoenzymes, pooled HLM, read-out: CYP IC50: 2D6); > 30 µM at CYP3A4 (human liver CYP isoenzymes, pooled HLM, read-out: CYP IC50: 3A4). Besides, the “effect on seizure incidence” value in assay [1] is recorded as “neither compound significantly affected seizure incidence”.
